Numbers after ± are expanded uncertainties.
Test: xn = mol fraction of the nth substance listed
Details: Liquid

C1CCCCC1 [cyclohexane] + CCC(C)O
101 kPa, x1 = 1
Details | mass density [kg/m3] | speed of sound [m/s] | viscosity [mPa·s]
293.15 K | 778.62 ± 0.48 | 1279 ± 3 | 0.968 ± 0.024
298.15 K | 773.92 ± 0.49 | 1254 ± 3 | 0.887 ± 0.022
303.15 K | 769.19 ± 0.49 | 1230 ± 3 | 0.816 ± 0.021

C1CCCCC1 [cyclohexane] + CCCC(C)O
x1 = 1
Details | mass density, 293.15 K [kg/m3] | mass density, 298.15 K [kg/m3] | mass density, 303.15 K [kg/m3] | speed of sound, 293.15 K [m/s] | speed of sound, 298.15 K [m/s] | speed of sound, 303.15 K [m/s] | viscosity, 293.15 K [mPa·s] | viscosity, 298.15 K [mPa·s] | viscosity, 303.15 K [mPa·s]
7 kPa | – | – | – | 1279 ± 3 | 1254 ± 3 | 1230 ± 3 | – | – | –
101 kPa | 778.62 ± 0.48 | 773.92 ± 0.49 | 769.19 ± 0.49 | – | – | – | 0.968 ± 0.024 | 0.887 ± 0.022 | 0.816 ± 0.021

C1CCCC1 [cyclopentane] + CC(C)O
101 kPa
Details | mass density, 293.15 K [kg/m3] | mass density, 298.15 K [kg/m3] | mass density, 303.15 K [kg/m3] | speed of sound, 293.15 K [m/s] | speed of sound, 298.15 K [m/s] | speed of sound, 303.15 K [m/s] | viscosity, 293.15 K [mPa·s] | viscosity, 298.15 K [mPa·s] | viscosity, 303.15 K [mPa·s]
x1 = 0.0486 | 782.53 ± 0.48 | 778.24 ± 0.49 | 773.87 ± 0.5 | 1156 ± 3 | 1138 ± 2 | 1120 ± 2 | 2.105 ± 0.05 | 1.823 ± 0.044 | 1.587 ± 0.039
x1 = 0.091 | 779.96 ± 0.49 | 775.6 ± 0.5 | 771.15 ± 0.5 | 1155 ± 3 | 1136 ± 2 | 1118 ± 2 | 1.874 ± 0.045 | 1.627 ± 0.039 | 1.421 ± 0.035
x1 = 0.2019 | 774.33 ± 0.51 | 769.77 ± 0.52 | 765.12 ± 0.52 | 1156 ± 3 | 1136 ± 3 | 1116 ± 2 | 1.425 ± 0.035 | 1.254 ± 0.031 | 1.11 ± 0.028
x1 = 0.2958 | 769.22 ± 0.53 | 764.52 ± 0.53 | 759.73 ± 0.54 | 1156 ± 3 | 1135 ± 3 | 1114 ± 2 | 1.172 ± 0.029 | 1.038 ± 0.026 | 0.925 ± 0.024
x1 = 0.3877 | 764.63 ± 0.54 | 759.81 ± 0.55 | 754.9 ± 0.55 | 1158 ± 3 | 1136 ± 3 | 1114 ± 3 | 0.954 ± 0.024 | 0.856 ± 0.022 | 0.77 ± 0.02
x1 = 0.4823 | 760.38 ± 0.56 | 755.45 ± 0.56 | 750.44 ± 0.57 | 1162 ± 3 | 1139 ± 3 | 1116 ± 3 | 0.799 ± 0.021 | 0.724 ± 0.019 | 0.658 ± 0.018
x1 = 0.5974 | 755.59 ± 0.58 | 750.58 ± 0.58 | 745.49 ± 0.59 | 1168 ± 3 | 1145 ± 3 | 1121 ± 3 | 0.641 ± 0.017 | 0.588 ± 0.016 | 0.542 ± 0.015
x1 = 0.7206 | 750.97 ± 0.6 | 745.92 ± 0.6 | 740.79 ± 0.61 | 1179 ± 3 | 1154 ± 3 | 1130 ± 3 | 0.535 ± 0.015 | 0.499 ± 0.014 | 0.466 ± 0.013
x1 = 0.8136 | 747.96 ± 0.62 | 742.89 ± 0.62 | 737.76 ± 0.63 | 1190 ± 3 | 1165 ± 3 | 1140 ± 3 | 0.484 ± 0.014 | 0.454 ± 0.013 | 0.427 ± 0.013
x1 = 0.9219 | 745.39 ± 0.63 | 740.33 ± 0.64 | 735.2 ± 0.64 | 1208 ± 3 | 1183 ± 3 | 1157 ± 3 | 0.449 ± 0.013 | 0.424 ± 0.012 | 0.401 ± 0.012
x1 = 0.9533 | 744.87 ± 0.64 | 739.86 ± 0.64 | 734.72 ± 0.65 | 1215 ± 3 | 1189 ± 3 | 1164 ± 3 | 0.443 ± 0.013 | 0.419 ± 0.012 | 0.398 ± 0.012
x1 = 1 | 744.52 ± 0.65 | 739.55 ± 0.65 | 734.54 ± 0.66 | 1232 ± 3 | 1206 ± 3 | 1180 ± 3 | 0.438 ± 0.013 | 0.416 ± 0.012 | 0.394 ± 0.012

C1CCCC1 [cyclopentane] + CCC(C)O
101 kPa
Details | mass density, 293.15 K [kg/m3] | mass density, 298.15 K [kg/m3] | mass density, 303.15 K [kg/m3] | speed of sound, 293.15 K [m/s] | speed of sound, 298.15 K [m/s] | speed of sound, 303.15 K [m/s] | viscosity, 293.15 K [mPa·s] | viscosity, 298.15 K [mPa·s] | viscosity, 303.15 K [mPa·s]
x1 = 0.0445 | 803.52 ± 0.48 | 799.33 ± 0.49 | 795.05 ± 0.49 | 1225 ± 3 | 1207 ± 3 | 1188 ± 3 | 3.152 ± 0.074 | 2.621 ± 0.063 | 2.194 ± 0.053
x1 = 0.1036 | 799.5 ± 0.49 | 795.2 ± 0.5 | 790.81 ± 0.5 | 1219 ± 3 | 1200 ± 3 | 1181 ± 3 | 2.649 ± 0.063 | 2.231 ± 0.053 | 1.898 ± 0.046
x1 = 0.1872 | 793.75 ± 0.51 | 789.32 ± 0.51 | 784.79 ± 0.52 | 1212 ± 3 | 1192 ± 3 | 1172 ± 3 | 2.121 ± 0.051 | 1.811 ± 0.044 | 1.56 ± 0.038
x1 = 0.2856 | 787.01 ± 0.53 | 782.42 ± 0.53 | 777.74 ± 0.54 | 1204 ± 3 | 1183 ± 3 | 1162 ± 3 | 1.604 ± 0.039 | 1.393 ± 0.034 | 1.219 ± 0.03
x1 = 0.3938 | 779.61 ± 0.55 | 774.87 ± 0.55 | 770.05 ± 0.56 | 1197 ± 3 | 1175 ± 3 | 1153 ± 3 | 1.194 ± 0.03 | 1.054 ± 0.027 | 0.94 ± 0.024
x1 = 0.4873 | 773.26 ± 0.56 | 768.43 ± 0.57 | 763.52 ± 0.57 | 1193 ± 3 | 1170 ± 3 | 1148 ± 3 | 0.946 ± 0.024 | 0.85 ± 0.022 | 0.77 ± 0.02
x1 = 0.6179 | 764.92 ± 0.58 | 760.01 ± 0.59 | 755.02 ± 0.6 | 1191 ± 3 | 1167 ± 3 | 1144 ± 3 | 0.692 ± 0.019 | 0.636 ± 0.017 | 0.588 ± 0.016
x1 = 0.7034 | 759.79 ± 0.6 | 754.84 ± 0.6 | 749.82 ± 0.61 | 1193 ± 3 | 1169 ± 3 | 1145 ± 3 | 0.61 ± 0.017 | 0.569 ± 0.016 | 0.531 ± 0.015
x1 = 0.8115 | 753.71 ± 0.62 | 748.71 ± 0.62 | 743.64 ± 0.63 | 1200 ± 3 | 1175 ± 3 | 1151 ± 3 | 0.517 ± 0.015 | 0.485 ± 0.014 | 0.455 ± 0.013
x1 = 0.9113 | 748.61 ± 0.63 | 743.57 ± 0.64 | 738.46 ± 0.64 | 1211 ± 3 | 1186 ± 3 | 1161 ± 3 | 0.468 ± 0.013 | 0.441 ± 0.013 | 0.416 ± 0.012
x1 = 0.9506 | 746.74 ± 0.64 | 741.7 ± 0.64 | 736.6 ± 0.65 | 1218 ± 3 | 1192 ± 3 | 1167 ± 3 | 0.451 ± 0.013 | 0.426 ± 0.013 | 0.403 ± 0.012
x1 = 1 | 744.52 ± 0.65 | 739.55 ± 0.65 | 734.54 ± 0.66 | 1232 ± 3 | 1206 ± 3 | 1180 ± 3 | 0.438 ± 0.013 | 0.416 ± 0.012 | 0.394 ± 0.012

Source: the NIST ThermoML archive (doi:10.1021/je050540h)
